Experimental data taken from PMC9775322, “An Integrated Analysis of Mechanistic Insights into Biomolecular Interactions and Molecular Dynamics of Bio-Inspired Cu(II) and Zn(II) Complexes towards DNA/BSA/SARS-CoV-2 3CL^pro by Molecular Docking-Based Virtual Screening and FRET Detection” (Biomolecules, 2022).
Values joined by “and” are separate entries in the source; they are usually repeats but may differ in a detail not shown here. Equal entries are not always repeated.

Legend:
[1] = target: T1, BSA (Bos taurus, UniProt P02769); test: Förster's theory-based FRET computation, donor (BSA)–acceptor (compound); assay type: binding, bovine; set-up: kET (rate of exchange resonance energy transfer): unit not given here; settings: for J (normalized spectral overlap integral): BSA emission vs compound absorption; for kET (rate of exchange resonance energy transfer) / r (donor-acceptor separation): BSA–compound; for E (efficiency of energy transfer): E=1−F/F0; for B (average brightness of the complex-BSA system): free BSA = 6573.60 M^−1 cm^−1; for R0 (critical distance, 50% energy transfer): n = 1.36, Φ = 0.15, K^2 = 2/3
T1 construct: purchased Sigma Aldrich
From the text: As per Förster’s theory, the critical distance of the donor-acceptor system can be determined with the supporting of the FRET approach to assess the binding affinity between BSA-substance systems. […]
excitation and emission directions, respectively. Also, the alteration in absorbance (OD) at the excitation and fluorescence wavelengths, respectively, is sometimes referred to as A ex and […]
F = 1+KSV [Q] = 1+ Kq τ0 (S13)
Where [Q] is represented as the sample concentration (quencher), the emission intensities F 0 and F are those in the […] of the quencher, respectively.
F ) = log Kass + nlog [Q] (S14)
KEB[EB] = Kapp[compound] (S15)
∆F = (F 0–F), Equation (16) was utilized to examine the Lineweaver –Burk binding constant (KLB) from the linear regression plot of 1/(F0–F) vs 1/[Q]. […]
γ =(F0–F)/F0, CF is denoted as the concentration of sample alone, the linear regression plot of (γ/CF) vs γ was employed to support equation (17), which was used to determine the values of KSA and n, respectively.
2.2.6. FRET calculation by Förster’s theory
Calculating FRET (Fluorescence Resonance Energy Transfer) is a crucial approach in determining the critical distance (r) between donor (BSA) and acceptor (test compound) molecules, in which the binding affinity between the BSA-complex systems could be evalued according to Förster’s theory. The overlap of the emission spectrum of the donor (BSA) and the absorption spectrum of the acceptor (compound) describes that the acceptor (compound) group may get excited as a result of the excited donor's (BSA) energy being lost to the ground […]
The relative orientation factor of the dipoles (K 2) is associated with the geometry of the BSA and complex of the dipoles, the value for random orientation (K 2 = 2/3) like in a fluid […]
F(λ) is represented as the corrected or the normalized emission intensity(OD) of the bovine serum albumin in the range of λ–(λ+∆λ), ε(λ) is denoted as the molar extinction coefficient of […]
The radiative, non-radiative decay and quenching rate constants are denoted as k r, knr and kq, respectively, and the concentration of complex (quenching species) is described as [Q].

[2] = test system: Escherichia coli; test: Agar disc diffusion antibacterial test; settings: for Inhibition %: (T–C)/T × 100
[3] = test system: CT-DNA; test: DNA binding by UV–visible absorption titration; set-up: species or system calf; settings: for % H (hypochromism) / Δλ nm (red shift on binding to CT-DNA): compound 50 μM, DNA 0–50 μM, Tris-HCl buffer pH 7.4, 25 °C; for Kb, BH–I (Benesi–Hildebrand method I) / Kb, BH–II (Benesi–Hildebrand method II) / Kb, SK–I (Sakthi–Krause method I) / Kb, SK–II (Sakthi–Krause method II) / Kb, WS–I (Wolfe-Shimmer method I) / Kb, WS–II (Wolfe-Shimmer method II): intrinsic DNA binding constant; for ΔGb°, BH–I / ΔGb°, BH–II / ΔGb°, SK–I / ΔGb°, SK–II / ΔGb°, WS–I / ΔGb°, WS–II: −RT ln Kb, T = 298 K
Experimental: The DNA-binding experiment was performed by a UV–visible spectrophotometer by raising the DNA concentration from zero to 50 μM to the given concentration of all samples (50 μM) in Tris-HCl buffer with a pH of 7.4 at 25 °C [21, 22].
2.2.2. Evaluation of DNA-binding characteristics
By increasing the concentration of DNA (0 –50 μM), electronic absorption titrations were performed at the fixed concentration (50 μM) of all test compounds in aqueous media at room temperature. The Tris-HCl buffer (5mM Tris-HCl /50 mM NaCl, pH = 7.2) solution was guaranteed to be pure and contain sufficient amounts of DNA. Using the molar extinction coefficient (6600 M −1 cm−1) at 260 nm, it was also possible to measure the DNA concentration per nucleotide and polynucleotide, denoting that the DNA was sufficiently free of protein by the ratio of absorbance at 260 and 280 nm of roughly 1.8 –1.9 [21, 22]. When raising the concentration of DNA in compound solution, up to the point of completely binding, the decrease in absorbance intensity was carefully observed. […]
ɛa is represented as the apparent absorption coefficient value for the MLCT band at a specific concentration of deoxyribonucleic acid and evaluated from Abs/[complex]. ɛ f and ɛb are the absorption coefficients for the chemical substance alone and completely interacted with deoxyribonucleic acid, respectively. ∆Amax = (Amax–A0); ∆A=(Ax–A0), where A0, Ax and Amax are denoted as the optical density of chemical substances alone, the middle form, and the completely interacted form with deoxyribonucleic acid, respectively.

[4] = test system: CT-DNA; test: DNA binding affinity by viscometric (hydrodynamic) titration; set-up: species or system calf; settings: for Relative Specific Viscosity (η/η0)^1/3: DNA 100 µM; for Slope of (η/η0)^1/3 vs [Compound]/[DNA]: linear plot, R 0.2–1.0
Experimental: The hydrodynamic titrations were carried out for all substances along with ethidium bromide (control) at 20, 40, 60, 80, 100 µM concentrations. In the Ostwald viscometer, these substances were also separately treated with the deoxyribonucleic acid solution (100 µM).
2.2.4. Viscometry-based titration for investigation of DNA binding
The Viscometry-based titration measurements were further supportive and delivered data about the binding modes between test compound and DNA base pairs. Nevertheless, it does not deliver definite confirmation for the exact mode of interactions. The experiment performed for all test compounds and ethidium bromide (control) at various concentrations 20, 40, 60, 80, 100 µM and each compound mixed with the CT-DNA solution (100 µM) in the Ostwald viscometer. With an accuracy of 0.01 seconds, a digital stopwatch was used to measure the average flow time. Due to the enhancement of the DNA's overall contour length during the separation of base pairs at intercalation sites, the classical intercalative mode […]
Generally, the compounds may result in less positive/negative or no viscosity change if they bind with DNA base pairs via […]
major or minor grooves [ 26]. […]
compounds via intercalation.

[5] = test system: Chromo bacterium violaceum; test: Agar disc diffusion antibacterial test; settings: for Inhibition %: (T–C)/T × 100
[6] = test system: EB–DNA; test: Ethidium bromide displacement assay by fluorescence spectral titration; assay type: binding, calf; settings: Kapp=KEB[EB]/[compound], KEB = 10^7 M^−1 at 50 µM EB; compound concentration at 50% reduction of EB fluorescence
[7] = test system: Mucor indicus; test: Agar disc diffusion antifungal test; settings: for Inhibition %: (T–C)/T × 100
[8] = C, (-) Chromo bacterium violaceum
[9] = read-out: diameter of clear zone inhibition

T1 sequence (P02769 25-607): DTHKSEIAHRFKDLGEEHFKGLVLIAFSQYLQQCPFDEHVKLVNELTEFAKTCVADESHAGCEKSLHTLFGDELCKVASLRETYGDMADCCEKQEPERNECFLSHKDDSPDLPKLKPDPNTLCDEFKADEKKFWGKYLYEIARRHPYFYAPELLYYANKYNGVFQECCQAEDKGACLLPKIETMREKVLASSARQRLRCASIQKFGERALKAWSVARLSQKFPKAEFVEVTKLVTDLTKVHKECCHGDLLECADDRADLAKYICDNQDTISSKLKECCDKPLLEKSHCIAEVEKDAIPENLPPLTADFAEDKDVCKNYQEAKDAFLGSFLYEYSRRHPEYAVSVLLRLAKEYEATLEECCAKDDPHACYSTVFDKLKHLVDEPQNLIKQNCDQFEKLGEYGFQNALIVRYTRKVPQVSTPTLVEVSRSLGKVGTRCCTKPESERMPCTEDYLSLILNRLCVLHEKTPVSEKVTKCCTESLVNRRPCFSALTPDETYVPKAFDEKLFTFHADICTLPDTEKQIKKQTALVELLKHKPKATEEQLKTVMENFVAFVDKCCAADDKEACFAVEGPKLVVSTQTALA

| Compound | J (normalized spectral overlap integral) [1] | kET (rate of exchange resonance energy transfer) [1] | r (donor-acceptor separation) [1] | E (efficiency of energy transfer) [1] | B (average brightness of the complex-BSA system) [1] | R0 (critical distance, 50% energy transfer) [1] | Inhibition % ([2]; A, (-) Escherichia coli) | % H (hypochromism) [3] | Δλ nm (red shift on binding to CT-DNA) [3] | Kb, BH–I (Benesi–Hildebrand method I) ([3]; UV–Vis titration) | Kb, BH–II (Benesi–Hildebrand method II) ([3]; UV–Vis titration) | Kb, SK–I (Sakthi–Krause method I) ([3]; UV–Vis titration) | Kb, SK–II (Sakthi–Krause method II) ([3]; UV–Vis titration) | Kb, WS–I (Wolfe-Shimmer method I) ([3]; UV–Vis titration) | Kb, WS–II (Wolfe-Shimmer method II) ([3]; UV–Vis titration) | ΔGb°, BH–I [3] | ΔGb°, BH–II [3] | ΔGb°, SK–I [3] | ΔGb°, SK–II [3] | ΔGb°, WS–I [3] | also measured |
| --- | --- | --- | --- | --- | --- | --- | --- | --- | --- | --- | --- | --- | --- | --- | --- | --- | --- | --- | --- | --- | --- |
| [O-]c1ccccc1N=Cc1ccc(N2CCOCC2)cc1.[O-]c1ccccc1N=Cc1ccc(N2CCOCC2)cc1.[Zn+2].c1cnc2c(c1)ccc1cccnc12 [(2b), [Zn^II(L)2(phen)]] | 0.9460 × 10^−14 LM^−1cm^3 | 4.7730 | 2.8257 nm | 0.3231 | 5650.81 M⁻¹ cm⁻¹ | 2.4980 nm | 40% | 55.75% | 5 nm | 20131 M⁻¹ | 20035 M⁻¹ | 19471 M⁻¹ | 20897 M⁻¹ | 19930 M⁻¹ | 20811 M⁻¹ | −24.55 kJmol^−1 | −24.54 kJmol^−1 | −24.47 kJmol^−1 | −24.65 kJmol^−1 | −24.53 kJmol^−1 | diameter of clear zone inhibition ([2]; A, (-) Escherichia coli, 20 µL of 100 µM on 6 mm disc, Control (DMSO) = 6 mm): 10 mm; ΔGb° values, range over all methods (WS, BH, SK) ([3]; DNA binding, UV–Vis titration): −24.47 to −24.65 kJmol^−1; ΔGb°, WS–II [3]: −24.64 kJmol^−1; Relative Specific Viscosity (η/η0)^1/3 ([4]; R = [Complex]/[DNA] = 0.2): 0.80; Relative Specific Viscosity (η/η0)^1/3 ([4]; R = [Complex]/[DNA] = 0.4): 0.91; Relative Specific Viscosity (η/η0)^1/3 ([4]; R = [Complex]/[DNA] = 0.6): 1.16; Relative Specific Viscosity (η/η0)^1/3 ([4]; R = [Complex]/[DNA] = 0.8): 1.21; Relative Specific Viscosity (η/η0)^1/3 ([4]; R = [Complex]/[DNA] = 1.0): 1.53; Slope of (η/η0)^1/3 vs [Compound]/[DNA] [4]: 0.840; diameter of clear zone inhibition ([5]; C, (-) Chromo bacterium violaceum, 20 µL of 100 µM on 6 mm disc, Control (DMSO) = 6 mm): 11 mm; Inhibition % [5, 8]: 45%; Kapp (apparent binding constant) [6]: 4.804e+06 M⁻¹; diameter of clear zone inhibition ([7]; J, 20 µL of 100 µM on 6 mm disc, Control (DMSO) = 6 mm): 10 mm; Inhibition % ([7]; J): 40% |
| Oc1ccccc1N=Cc1ccc(N2CCOCC2)cc1 [(HL), 2-(4-morpholinobenzylideneamino)phenol] | 0.8215 × 10^−14 LM^−1cm^3 | 5.8443 | 2.6685 nm | 0.3462 | 5339.79 M⁻¹ cm⁻¹ | 2.4400 nm | 33% | 46.88% | 4 nm | 1.0545 (1.0545) × 10^4 M^−1 | 1.0545 (1.0545) × 10^4 M^−1 | 8775 M⁻¹ | 15618 M⁻¹ | 15169 M⁻¹ | 15480 M⁻¹ | −22.95 (−22.95) kJmol^−1 | −22.95 (−22.95) kJmol^−1 | −22.50 kJmol^−1 | −23.92 kJmol^−1 | −23.85 kJmol^−1 | zone of inhibition at 100 µM ([2]; Escherichia coli, read-out: diameter of clear zone inhibition): 9 mm; ΔGb°, WS–II [3]: −23.90 kJmol^−1; Relative Specific Viscosity (η/η0)^1/3 ([4]; R = [Complex]/[DNA] = 0.2): 0.61; Relative Specific Viscosity (η/η0)^1/3 ([4]; R = [Complex]/[DNA] = 0.4): 0.67; Relative Specific Viscosity (η/η0)^1/3 ([4]; R = [Complex]/[DNA] = 0.6): 0.75; Relative Specific Viscosity (η/η0)^1/3 ([4]; R = [Complex]/[DNA] = 0.8): 0.85; Relative Specific Viscosity (η/η0)^1/3 ([4]; R = [Complex]/[DNA] = 1.0): 1.01; Slope of (η/η0)^1/3 vs [Compound]/[DNA] [4]: 0.462 and 0.4616; Inhibition % [5, 8]: 45%; zone of inhibition at 100 µM [5, 9]: 11 mm; Kapp (apparent binding constant) [6]: 4.2e+06 M⁻¹; Inhibition % ([7]; J): 45%; zone of inhibition at 100 µM [7, 9]: 11 mm |
